Patent US20200338056A1, “INDUCTION OF SENESCENCE USING PROTON PUMP INHIBITORS” (THE METHODIST HOSPITAL SYSTEM, priority 2016, published 2020)
“Also recorded” adds a separate entry of the source.

Key:
[1] = test system: Human microvascular endothelial cells (ECs); experiment: Senescence-associated β-galactosidase (SA-β-gal) staining with SYTO cell count; assay type: cell-based; settings: for endothelial senescence / aging (overall finding): chronic exposure of human ECs; for SA-β-gal-positive cells / total cell count per microscopic field (SYTO-green staining): chronic treatment, at P6, vs vehicle
Experimental: (§1) Cell culture. Human microvascular endothelial cells (ECs) purchased from Lonza (cat # CC-2543, Basel, Switzerland) were cultured continuously for three passages from passage (P) 4 to P6 in the presence of clinically relevant doses of esomeprazole or vehicle (DMSO) (Shin J M, Kim N. Pharmacokinetics and pharmacodynamics of the proton pump inhibitors. Journal of neurogastroenterology and motility. 2013; 19:25-35). All in vitro experiments were performed at P6 upon confluency. ECs were cultured and maintained in EBM-2 Basal Medium (cat # CC-3156, Lonza, Basel, Switzerland) supplemented with EGM-2 MV SingleQuots™ Kit—growth factors, cytokines, and antibiotics (cat # CC-4147, Lonza, Basel, Switzerland).
Senescence-associated β-galactosidase (SA-β-gal) staining. Senescence of ECs was measured using the Cellular Senescence Assay kit from Cell Biolabs, Inc. (Cat: CBA-230, San Diego, Calif.). The protocol was performed according to the manufacturer's guide. Briefly, Ecs treated continuously for 3 passages with esomeprazole or vehicle were plated in a 6 well plate. Upon confluency, cells were initially fixed and later incubated with SA-β-gal working solution for 16 hours in a non-humidified CO2 free incubator at 37° C. After incubation the cells were counter stained with SYTO® GREEN fluorescent nucleic acid stain (Life Technologies). Several random images per well were taken using light and fluorescent microscope. The SA-β-gal positive cells were counted manually and total cell number per field was quantified using NIH ImageJ software.

telomerase = experiment: Telomeric repeat amplification protocol (TRAP) telomerase activity; assay type: cell-based, human; settings: TRAP assay, esomeprazole and vehicle ECs
Experimental: Telomere length and telomerase activity. Telomere length in ECs was measured using monochrome multiplex qPCR ([…]) assay as described previously (Ramunas J, et al., Transient delivery of modified mrna encoding tert rapidly extends telomeres in human cells. FASEB journal: official publication of the Federation of American Societies for Experimental Biology. 2015; 29:1930-1939). The telomeric repeat amplification protocol (TRAP) was performed using TRAPeze® Telomerase Detection Kit (EMD Millipore Inc. cat # S7700, Darmstadt, Germany). Experiment was performed according to the manufacturer's instructions. In brief, ECs treated with esomeprazole or vehicle were collected, counted and total protein was isolated from 100,000 cells. The amount of lysate used per reaction was normalized to the amount of 1,000 cells for ECs and 500 cells for telomerase positive control (PC). In short, TRAP was performed at 30° C. for 30 minutes and resulting products were amplified in a 29 cycle PCR reaction. Heat inactivated (hi) lysate samples for each condition were used as internal negative controls.

PAI-1 = experiment: Western blot for PAI-1 protein expression; assay type: cell-based, human; settings: vs vehicle
Experimental: as §1
Western blot analysis. Preparation of cell lysate, SDS-PAGE, transfer of proteins onto membrane and western blotting was performed as described previously (Rajapakse A G, et al., Hyperactive s6k1 mediates oxidative stress and endothelial dysfunction in aging: Inhibition by resveratrol. PloS one. 2011; 6:e19237.6). To detect PAI-1 protein expression anti-PAI-1 rabbit monoclonal antibody (Cell Signaling Technology, Inc. cat #11907S, Danvers, Mass.) was used and anti-α-Tubulin mouse monoclonal antibody (Sigma cat # T5168, St. Louis, Mo.) was used to normalize expression.

[2] = test system: Human microvascular endothelial cells (ECs); experiment: Telomere length by monochrome multiplex qPCR (MMqPCR); assay type: cell-based; settings: vs vehicle
Experimental: as §1
Telomere length and telomerase activity. Telomere length in ECs was measured using monochrome multiplex qPCR (MMqPCR) assay as described previously (Ramunas J, et al., Transient delivery of modified mrna encoding tert rapidly extends telomeres in human cells. FASEB journal: official publication of the Federation of American Societies for Experimental Biology. 2015; 29:1930-1939). The telomeric repeat amplification protocol (TRAP) was performed using TRAPeze® Telomerase Detection Kit (EMD Millipore Inc. cat # S7700, Darmstadt, Germany). […] In brief, ECs treated with esomeprazole or vehicle were collected, counted and total protein was isolated from 100,000 cells. […]

[3] = test system: N-acetyl-β-d-glucosaminidase; experiment: N-Acetyl-β-D-Glucosaminidase (NAG) activity assay, EC lysate; assay type: cell-based, human; settings: ECs treated chronically, vs vehicle
Experimental: (§2) Cell culture. Human microvascular endothelial cells (ECs) purchased from Lonza (cat # CC-2543, Basel, Switzerland) were cultured continuously for three passages from passage (P) 4 to P6 in the presence of clinically relevant doses of esomeprazole or vehicle (DMSO) (Shin J M, Kim N. Pharmacokinetics and pharmacodynamics of the proton pump inhibitors. Journal of neurogastroenterology and motility. 2013; 19:25-35). All in vitro experiments were performed at P6 upon confluency. […]
(§3) Lysosomal studies. Cellular pH, lysosomal cathepsin B and protein aggregation were measured in live ECs using pHrodo™ Green/Red dextran, 10,000 MW dye (cat: P35368/P35372, MOLECULAR PROBES®, Life Technologies, Carlsbad, Calif.), Magic Red™ Cathepsin B Assay Kit (cat: 938, ImmunoChemistry Technologies LLC, Bloomington, Minn.) and PROTEOSTAT® Protein aggregation assay (cat: ENZ-51023-KP002, Enzo Life Sciences, Inc., Farmingdale, N.Y.). The pHrodo™ Green dextran when endocytosed permits visualization of endosomal pH, with an inverse non-linear relationship of fluorescence intensity to pH. […] Fluorescence images were taken using Olympus IX51 Inverted fluorescence microscope at 10× magnification and 40× for protein aggregation. All images were quantified using NIH ImageJ 1.47v software. […] Absorbance was measured using Tecan Infinite® M1000 PRO multimode reader at 405 nm (Tecan, Mannedorf, Switzerland).

[4] = test system: Human microvascular endothelial cells (ECs); experiment: Quantitative PCR (Taqman) gene expression in ECs; assay type: cell-based; settings: RT-PCR, vs vehicle
Experimental: as §1
Quantitative PCR and PCR array. Total RNA was isolated from cultured cells using PerfectPure RNA Cultured Cell Kit-50 from 5 PRIME (cat #2900319, San Francisco, Calif.) according to the manufacturer's instruction. Complementary DNA (cDNA) was prepared using gScript™ cDNA SuperMix (Quanta BioSciences, Inc. cat #95048, Beverly, Mass.). Quantitative PCR (qPCR) was performed using Taqman gene expression assays (Applied Biosystems, Foster City, Calif.). All genes analyzed for expression (listed in the table below) were normalized to GAPDH expression and expressed as relative fold changes using the ΔCt method of analysis. Gene expression of shelterin complex genes was quantified using SYBR™ Green Real Time PCR master mix. Primers for genes related to shelterin complex were obtained from Integrated DNA Technologies, Inc. (San Jose, Calif.) and are listed in the table below. RT^2 Profiler PCR Array (Qiagen, Hilden, Germany) was used to assess expression of selected genes associated with specific cellular functions following manufacturer's instructions. Name, catalog numbers and genes detected by the arrays are listed below.

acid phosphatase = experiment: Acid phosphatase activity assay, EC lysate; assay type: cell-based, human; settings: ECs treated chronically, 5 and 10 μmol/L, P4-6, vs vehicle
Experimental: as §2, §3

[5] = poor metabolizers (about 3% of whites, 23% of Asians); cited from earlier work
[6] = test system: Human microvascular endothelial cells (ECs); experiment: Network formation assay on growth factor reduced matrigel (angiogenic capacity); assay type: cell-based; settings: growth factor-depleted matrigel, vs vehicle
Experimental: as §1
Network formation assay to measure angiogenic capacity. In order to assess angiogenic capacity of ECs, growth factor reduced matrigel from BD Biosciences (cat #354230, San Jose, Calif.) was used. In brief, 24 well flat transparent plates were coated with 200 μl of matrigel/well and allowed to set at 37° C. for one hour. Subsequently, 1×10^5 cells/well were seeded and allowed to incubate for 16 hours at 37° C. Several images per well were obtained using Olympus IX51 Inverted fluorescence and bright field microscope. Network branching was quantified using NIH ImageJ software. Total length is equal to the summed length of all segments, branches and isolated branches not within the main network. […]

[7] = test system: Human microvascular endothelial cells (ECs); experiment: Nitric oxide by DAF-2DA live cell imaging; assay type: cell-based; settings: ECs treated chronically, vs vehicle
Experimental: as §2
(§4) Measurement of superoxide and nitric oxide. Superoxide and nitric oxide were measured in ECs using live cell imaging dyes; DHE (Molecular Probes® cat # D-1168, Eugene, Oreg.) for superoxide and DAF-2DA (Sigma cat #50277, St. Louis, Mo.) for nitric oxide measurement according to the published protocol (Yepuri G, et al., Positive crosstalk between arginase-ii and s6k1 in vascular endothelial inflammation and aging. Aging cell. 2012; 11:1005-1016). Several images per well were captured using Olympus IX51 Inverted fluorescence microscope. Relative fluorescence intensities of images were quantified using NIH ImageJ software. The total NO concentration (NOx) was determined using the Griess colorimetric assay as previously described (Ghebremariam Y T, et al., Fxr agonist int-747 upregulates ddah expression and enhances insulin sensitivity in high-salt fed dahl rats. PloS one. 2013; 8:e60653).

shelterin complex = experiment: Shelterin complex gene expression by SYBR Green RT-PCR; assay type: cell-based, human; settings: vs vehicle
Experimental: as §1
(§5) Quantitative PCR and PCR array. Total RNA was isolated from cultured cells using PerfectPure RNA Cultured Cell Kit-50 from 5 PRIME (cat #2900319, San Francisco, Calif.) according to the manufacturer's instruction. […] Quantitative PCR (qPCR) was performed using Taqman gene expression assays (Applied Biosystems, Foster City, Calif.). All genes analyzed for expression (listed in the table below) were normalized to GAPDH expression and expressed as relative fold changes using the ΔCt method of analysis. Gene expression of shelterin complex genes was quantified using SYBR™ Green Real Time PCR master mix. […] Name, catalog numbers and genes detected by the arrays are listed below.

[8] = test system: Human microvascular endothelial cells (ECs); experiment: Superoxide anion by dihydroethidium (DHE) live cell imaging; assay type: cell-based; settings: ECs treated chronically, vs vehicle
Experimental: as §2, §4

[9] = test system: Human microvascular endothelial cells (ECs); experiment: BrdU cell proliferation ELISA; assay type: cell-based; settings: chronic exposure, 3 passages, vs vehicle
Experimental: as §1

[10] = test system: Human microvascular endothelial cells (ECs); experiment: RT2 Profiler PCR array, 331 genes from 5 pathways; assay type: cell-based; settings: esomeprazole compared to vehicle (DMSO)
Experimental: as §1, §5

[11] = test system: Human microvascular endothelial cells (ECs); experiment: Long term studies of endothelial histology (81 days after drug discontinued); assay type: cell-based; settings: 5 or 10 μmol/L for 3 passages, then 81 days without drug, vs vehicle
Experimental: Long term studies of endothelial histology. After ECs were exposed to vehicle or ESO (5 or 10 uM) through 3 passages (P4-P6), the treatment with ESO or vehicle was discontinued when the cells reached confluency at P6. Subsequently the cells in all groups were maintained in endothelial growth medium which was routinely replaced with fresh medium every 48 hours for 81 days. Microphotographs were taken at regular intervals throughout, and on the final day of culture.

[12] = test system: Human microvascular endothelial cells (ECs); experiment: PROTEOSTAT protein aggregation assay in ECs; assay type: cell-based; settings: ECs treated chronically, vs vehicle
Experimental: as §2, §3

[13] = test system: Human microvascular endothelial cells (ECs); experiment: Total nitrate/nitrite (NOx) by Griess colorimetric assay; assay type: cell-based; settings: ECs treated chronically, vs vehicle
Experimental: as §2, §4

lysosomal cathepsin B = experiment: Magic Red Cathepsin B assay in live ECs; assay type: cell-based, human; settings: ECs treated chronically, 5 and 10 μmol/L, P4-6, vs vehicle
Experimental: as §2, §3

[14] = test system: Human microvascular endothelial cells (ECs); experiment: Lysosomal pH by pHrodo Green/Red dextran fluorescence in live ECs; assay type: cell-based
Experimental: as §2, §3

Cc1nc2c(OCc3ccccc3)cccn2c1CC#N [SCH-28080]
endothelial senescence / aging (overall finding) [1]: accelerated
SA-β-gal-positive cells [1]: increased
total cell count per microscopic field (SYTO-green staining) [1]: decrease

COc1ccc2nc([S@@+]([O-])Cc3ncc(C)c(OC)c3C)[nH]c2c1 [esomeprazole]
telomerase expression or activity (telomerase): neither group of ECs manifested telomerase expression or activity
plasminogen activator inhibitor (PAI-1) protein expression (PAI-1): upregulated
telomere length [2]: significant decrease
N-acetyl-β-d-glucosaminidase activity [3]: does not impair; also recorded: No difference
expression of COL1A1 ([4]; EndoMT gene): upregulated
expression of SMAD3 ([4]; EndoMT gene): upregulated
expression of TWIST1 ([4]; EndoMT gene): upregulated
expression of DDAH1/2 ([4]; normalized to GAPDH): decrease
expression of eNOS ([4]; normalized to GAPDH): decrease
expression of iNOS ([4]; normalized to GAPDH): decrease
expression of von Willebrand factor [4]: decline
plasminogen activator inhibitor (PAI-1) message expression [4]: upregulated
expression of cell cycle inhibitor p21 gene ([4]; chronic treatment): increased
activity of acid phosphatase (acid phosphatase): reduced
increase in plasma concentration in CYP2C19 poor metabolizers [5]: 3 fold
angiogenic capacity of ECs (network formation) [6]: impaired
endothelial senescence / aging (overall finding) [1]: accelerated
SA-β-gal-positive cells [1]: increased
total cell count per microscopic field (SYTO-green staining) [1]: decrease
NO generation (diamino fluorescein 2-diacetate staining) [7]: less
expression of all 6 genes of the shelterin complex (TRF1, TRF2, POT1, RAP1, TIN2, TPP1) (shelterin complex): global downregulation
superoxide anion (dihydroethidium) [8]: more
cell proliferation (5-bromo-2′-deoxyuridine assay) [9]: dose-dependently impaired
Expression of genes (PCR array) strongly up-regulated, Table 4 gene list ([10]; 52 genes listed AGTR1 to ZEB2): Expressin of genes (PCR array) that are strongly up-regulated (>2 fold) upon
Expression of genes (PCR array) strongly up regulated, Table 5 gene list ([10]; genes listed ACE to VWF): Expression of genes (PCR array) that are strongly up regulated (>2 fold) upon
histology at the 3-month time point (cell loss, EndoMT) [11]: acceleration of EndoMT; also recorded: some cell loss or EndoMT
protein aggregates [12]: increase
total nitrate levels (Griess) [13]: decrease
activity of lysosomal cathepsin-B (lysosomal cathepsin B): reduced
fluorescence intensity of pH-sensitive dye (pHrodo Green), inversely related to lysosomal pH ([14]; ECs, esomeprazole 5 and 10 μmol/L, 3 passages (P4-6), vs vehicle (DMSO)): significantly reduced
pHrodo red fluorescence (lysosomal distribution) ([14]; second pH-sensitive dye, ESO treated vs vehicle treated ECs): reduced; also recorded: qualitatively similar findings
